One block for each compound: values may come before it.
Assays:
[1] = tested on: tumor cell lines shown in Table 32; experiment: Example 6: combined use with immunomodulator, cell growth inhibition test (IC50 ratio, CI); type: cell-based; settings: MM.1S; for IC50 Ratio: IC50 of Reference Example Compound 55 : IC50 of other compound = 1:value; for CI: at ED50; for Comprehensive Evaluation: combined use with Reference Example Compound 55
[2] = tested on: human acute T lymphoblastic leukemia CCRF-CEM cell lines; experiment: Cell growth inhibition 1 (CellTiter-Glo); type: cell-based; settings: culture with test compound 72 hours
[3] = tested on: human colon cancer HCT116 cell line; experiment: Cell growth inhibition 2, HCT116; type: cell-based; settings: HCT-116
[4] = tested on: human pancreatic cancer Capan-1 cell line; experiment: Cell growth inhibition 2, Capan-1; type: cell-based
[5] = tested on: human lung cancer A-427 cell line; experiment: Cell growth inhibition 2, A-427; type: cell-based
[6] = tested on: human breast cancer MDA-MB-453 cell line; experiment: Cell growth inhibition 2, MDA-MB-453; type: cell-based
[7] = tested on: human prostate cancer LNCAP.FGC cell line; experiment: Cell growth inhibition 2, LNCaP.FGC; type: cell-based
[8] = tested on: human multiple myeloma U266B1 cell line; experiment: Cell growth inhibition 2, U266B1; type: cell-based
[9] = tested on: human skin cancer A-431 cell line; experiment: Cell growth inhibition 2, A-431; type: cell-based
[10] = tested on: human acute leukemia MV-4-11 cell line; experiment: Cell growth inhibition 2, MV-4-11; type: cell-based; settings: MV4-11
[11] = tested on: human diffuse large B-cell lymphoma DB cell line; experiment: Cell growth inhibition 2, DB; type: cell-based
[12] = tested on: tumor cell lines shown in Table 30; experiment: Example 5: combined use with steroid, cell growth inhibition test (IC50 ratio, CI); settings: MM.1S; for IC50 Ratio: IC50 of Reference Example Compound 55 : IC50 of other compound = 1:value; for CI: at ED50; for Comprehensive Evaluation: combined use with Reference Example Compound 55
[13] = tested on: U266B1; experiment: Example 1: combined use with proteasome inhibitor, cell growth inhibition test (IC50 ratio, CI), U266B1; type: cell-based, human; settings: for CI: at ED50
[14] = tested on: tumor cell lines shown in Table 50; experiment: Example 15: combined use with anthracycline-based antitumor agent, cell growth inhibition test (IC50 ratio, CI); settings: for IC50 Ratio: IC50 of Reference Example Compound 55 : IC50 of other compound = 1:value; for CI: at ED50; for Comprehensive Evaluation: combined use with Reference Example Compound 55
[15] = tested on: tumor cell lines shown in Table 46; experiment: Example 13: combined use with microtubule inhibitor, cell growth inhibition test (IC50 ratio, CI); type: cell-based; settings: A549; for IC50 Ratio: IC50 of Reference Example Compound 55 : IC50 of other compound = 1:value; for CI: at ED50; for Comprehensive Evaluation: combined use with Reference Example Compound 55
[16] = tested on: human osteo- and soft tissue sarcoma SJCRH30 cell line; experiment: Cell growth inhibition 2, SJCRH30; type: cell-based
[17] = tested on: tumor cell lines shown in Table 48; experiment: Example 14: combined use with alkylating agent, cell growth inhibition test (IC50 ratio, CI); type: cell-based; settings: for IC50 Ratio: IC50 of Reference Example Compound 55 : IC50 of other compound = 1:value; for CI: at ED50; for Comprehensive Evaluation: combined use with Reference Example Compound 55
[18] = tested on: tumor cell lines shown in Table 44; experiment: Example 12: combined use with platinum-based antitumor agent, cell growth inhibition test (IC50 ratio, CI); settings: HL-60; for CI: at ED50
[19] = Reference Example Compound 55:other compound 1:10
[20] = Reference Example Compound 55:other compound 1:1
[21] = IC50 of Reference Example Compound 55 : IC50 of other compound = 1:value
[22] = combined use with Reference Example Compound 55
[23] = MV4-11, Reference Example Compound 55:other compound 1:3000
[24] = MV4-11, Reference Example Compound 55:other compound 1:9000

SMILES: Nc1cccc2c1CN(C1CCC(=O)NC1=O)C2=O (stereo not shown) [Lenalidomide, lenalidomide]
IC50 Ratio [1]: 14 | CI [1, 19]: 0.75 | CI ([1]; Reference Example Compound 55:other compound 1:30): 0.69 | Comprehensive Evaluation [1]: Moderate

SMILES: NS(=O)(=O)OC[C@@H]1C[C@@H](n2ccc3c(N[C@H]4CCc5ccccc54)ncnc32)CC1O (stereo partly drawn) [Comp. Example, N-[(1S)-1-indanyl]-7-[(1R)-3α-hydroxy-4α-(sulfamoyloxymethyl)cyclopentyl]-7H-pyrrolo[2,3-d]pyrimidin-4-amine]
IC50 [2]: 89 nM | IC50 [3]: 89 nM | IC50 [4]: 1500 nM | IC50 [5]: 180 nM | IC50 [6]: 1900 nM | IC50 [7]: 410 nM | IC50 [8]: 1400 nM | IC50 [9]: 750 nM | IC50 [10]: 110 nM | IC50 [11]: 560 nM

SMILES: C[C@@H]1C[C@H]2[C@@H]3CCC4=CC(=O)C=C[C@]4(C)[C@@]3(F)[C@@H](O)C[C@]2(C)[C@@]1(O)C(=O)CO [Dexamethasone, dexamethasone]
IC50 Ratio [12]: 0.4 | CI ([12]; Reference Example Compound 55:other compound 1:0.3): 0.51 | CI [12, 20]: 0.39 | Comprehensive Evaluation [12]: Synergism (0.3-0.7)

SMILES: CC(C)C[C@H](NC(=O)[C@H](CCc1ccccc1)NC(=O)CN1CCOCC1)C(=O)N[C@@H](Cc1ccccc1)C(=O)N[C@@H](CC(C)C)C(=O)[C@@]1(C)CO1 [Carfilzomib, carfilzomib]
IC50 Ratio [13, 21]: 0.30 | CI ([13]; Reference Example Compound 55:other compound 1:015): 0.64 | CI ([13]; Reference Example Compound 55:other compound 1:045): 0.66 | Comprehensive Evaluation [13, 22]: Synergism (0.3-0.7)

SMILES: Nc1cccc2c1C(=O)N(C1CCC(=O)NC1=O)C2=O (stereo not shown) [Poma1idomide, pomalidomide]
IC50 Ratio [1]: 3 | CI [1, 20]: 0.81 | CI ([1]; Reference Example Compound 55:other compound 1:3): 0.66 | Comprehensive Evaluation [1]: Moderate

SMILES: NCCNc1ccc(NCCN)c2c1C(=O)c1ccncc1C2=O [Pixantrone, pixantrone]
IC50 Ratio ([14]; MM.1S): 8.4 | CI ([14]; MM.1S, Reference Example Compound 55:other compound 1:3.7): 0.73 | CI ([14]; MM.1S, Reference Example Compound 55:other compound 1:11): 0.84 | Comprehensive Evaluation ([14]; MM.1S): Moderate

SMILES: CC(=O)O[C@H]1C(=O)[C@@]2(C)[C@H]([C@H](OC(=O)c3ccccc3)[C@]3(O)C[C@H](OC(=O)[C@H](O)[C@@H](NC(=O)c4ccccc4)c4ccccc4)C(C)=C1C3(C)C)[C@]1(OC(C)=O)CO[C@@H]1C[C@@H]2O [Paclitaxel, paclitaxel]
IC50 Ratio [15]: 0.04 | CI ([15]; Reference Example Compound 55:other compound 1:0.02): 0.98 | CI ([15]; Reference Example Compound 55:other compound 1:0.06): 0.77 | Comprehensive Evaluation [15]: Additive (0.9-1.10)

SMILES: C=C1C[C@@H]2CC[C@@]34C[C@H]5O[C@H]6[C@@H](O3)[C@H]3O[C@H](CC[C@@H]3O[C@H]6[C@H]5O4)CC(=O)C[C@@H]3[C@@H](OC)[C@@H](C[C@H](O)CN)O[C@H]3C[C@H]3O[C@@H](CC[C@@H]1O2)C[C@@H](C)C3=C [Eribulin, eribulin]
IC50 Ratio [15]: 0.01 | CI ([15]; Reference Example Compound 55:other compound 1:0.01): 1.02 | CI ([15]; Reference Example Compound 55:other compound 1:0.03): 0.89 | Comprehensive Evaluation [15]: Additive (0.9-1.10)

SMILES: COc1cccc2c1C(=O)c1c(O)c3c(c(O)c1C2=O)C[C@@](O)(C(=O)CO)C[C@@H]3O[C@H]1C[C@H](N)[C@H](O)[C@H](C)O1 [Doxorubicin, doxorubicin]
IC50 Ratio ([14]; HOS): 2 | CI ([14]; HOS, Reference Example Compound 55:other compound 1:1.7): 0.77 | CI ([14]; HOS, Reference Example Compound 55:other compound 1:5): 0.61 | Comprehensive Evaluation ([14]; HOS): Moderate

SMILES: O=P1(NCCCl)OCCCN1CCCl (stereo not shown) [Ifosfamide, ifosfamide]
IC50 Ratio ([17]; MV4-11): 6315 | CI [17, 23]: 0.57 | CI [17, 24]: 0.60 | Comprehensive Evaluation ([17]; MV4-11): Synergism (0.3-0.7)

SMILES: CN(C)/N=N/c1[nH]cnc1C(N)=O [Dacarbazine, dacarbazine]
IC50 Ratio ([17]; MV4-11): 6582 | CI [17, 23]: 0.92 | CI [17, 24]: 0.95 | Comprehensive Evaluation ([17]; MV4-11): Additive (0.9-1.10)

SMILES: O=C1[O][Pt]2([NH][C@@H]3CCCC[C@H]3[NH]2)[O]C1=O [Oxaliplatin, oxaliplatin]
IC50 Ratio [18, 21]: 132 | CI ([18]; Reference Example Compound 55:other compound 1:100): 0.65 | CI ([18]; Reference Example Compound 55:other compound 1:300): 0.70 | Comprehensive Evaluation [18, 22]: Synergism (0.3-0.7)

Now from value to compound, other results behind:

IC50 [2]: 1.7 nM | IC50 [3]: 6.4 nM | IC50 [4]: 380 nM | IC50 [5]: 5.4 nM | IC50 [6]: 480 nM | IC50 [7]: 500 nM | IC50 [16]: 5100 nM | IC50 [8]: 220 nM | IC50 [9]: 120 nM | IC50 [10]: 11 nM | IC50 [11]: 120 nM
SMILES: CNc1cc(F)c(C#Cc2cn([C@@H]3O[C@H](CNS(N)(=O)=O)[C@@H](O)[C@H]3O)c3ncnc(N)c23)c(F)c1 [Reference Example 25, 4-Amino-5-[2-[2,6-difluoro-4-(methylamino)phenyl]ethynyl]-7-[(2R,3R,4S,5R)-3,4-dihydroxy-5-[(sulfamoylamino)methyl]tetrahydrofuran-2-yl]pyrrolo[2,3-d]pyrimidine]

IC50 [2]: 8.8 nM | IC50 [3]: 18 nM | IC50 [4]: 890 nM | IC50 [5]: 22 nM | IC50 [6]: 76 nM | IC50 [7]: 510 nM | IC50 [16]: 130 nM | IC50 [8]: 270 nM | IC50 [9]: 1600 nM | IC50 [10]: 38 nM | IC50 [11]: 120 nM
SMILES: CN1CCOc2c1ccc(F)c2C#Cc1cn([C@@H]2C[C@H](CNS(N)(=O)=O)[C@@H](O)[C@H]2O)c2ncnc(N)c12 [Reference Example 122, 8-[2-[4-amino-7-[(1R,2S,3R,4R)-2,3-dihydroxy-4-[(sulfamoylamino)methyl]cyclopentyl]pyrrolo[2,3-d]pyrimidin-5-yl]ethynyl]-7-fluoro-4-methyl-2,3-dihydro-1,4-benzoxazine]

IC50 Ratio ([17]; HOS): 0.2
SMILES: COc1cc2c(cc1O)CCN[C@]21CS[C@@H]2c3c(OC(C)=O)c(C)c4c(c3[C@H](COC1=O)N1[C@@H]2[C@H]2c3c(cc(C)c(OC)c3O)C[C@@H]([C@@H]1O)N2C)OCO4 [Trabectedin, trabectedin]
CI ([17]; HOS, Reference Example Compound 55:other compound 1:0.1): 0.83 | CI ([17]; HOS, Reference Example Compound 55:other compound 1:0.3): 1.01 | Comprehensive Evaluation ([17]; HOS): Additive (0.9-1.10)

IC50 Ratio [1]: 6603
SMILES: O=C1CCC(N2C(=O)c3ccccc3C2=O)C(=O)N1 (stereo not shown) [Thalidomide, thalidomide]
CI ([1]; Reference Example Compound 55:other compound 1:900 (only ratio calculated)): 0.63 | Comprehensive Evaluation [1]: Synergism (0.3-0.7)

IC50 [2]: 5.8 nM | IC50 [3]: 14 nM | IC50 [4]: 1200 nM | IC50 [5]: 91 nM | IC50 [6]: 140 nM | IC50 [7]: 680 nM | IC50 [16]: 560 nM | IC50 [9]: 710 nM | IC50 [10]: 32 nM | IC50 [11]: 110 nM
SMILES: CN1CCOc2c1ccc(F)c2C#Cc1cn([C@@H]2O[C@H](CNS(N)(=O)=O)[C@@H](O)[C@H]2O)c2ncnc(N)c12 [Reference Example 64, 8-[2-[4-Amino-7-[(2R,3R,4S,5R)-3,4-dihydroxy-5-[(sulfamoylamino)methyl]tetrahydrofuran-2-yl]pyrrolo[2,3-d]pyrimidin-5-yl]ethynyl]-7-fluoro-4-methyl-2,3-dihydro-1,4-benzoxazine]

IC50 Ratio [12]: 8.3
SMILES: C[C@]12C=CC(=O)C=C1CC[C@@H]1[C@@H]2[C@@H](O)C[C@@]2(C)[C@H]1CC[C@]2(O)C(=O)CO [Prednisolone, prednisolone]
CI ([12]; Reference Example Compound 55:other compound 1:3.3): 0.54 | CI [12, 19]: 0.44 | Comprehensive Evaluation [12]: Synergism (0.3-0.7)

From patent US20190010158A1, “ANTITUMOR EFFECT POTENTIATOR COMPRISING PYRROLOPYRIMIDINE COMPOUND” (TAIHO PHARMACEUTICAL CO., LTD, priority 2015, published 2019)
